Paper PMC3089059 (Bioorganic & medicinal chemistry, 2011)

Legend:
Plasma stability assay = assay type: in vitro ADME; settings: after 60 min of incubation in rat plasma, 1 μM, 37 °C
[1] = Microsomal stability assay; assay type: in vitro ADME; settings: after 60 min of incubation in rat microsomal preparations, 4 μM, NADPH
JNK1 [2] = biological target: T1, JNK1 (Homo sapiens, UniProt P45983); assay type: biochemical
JNK1 [3] = biological target: JNK1 (Homo sapiens, UniProt P45984); assay: biochemical; assay type: binding; settings: ITC
Sequence of JNK1 (Homo sapiens, UniProt P45984) (P45984 whole entry): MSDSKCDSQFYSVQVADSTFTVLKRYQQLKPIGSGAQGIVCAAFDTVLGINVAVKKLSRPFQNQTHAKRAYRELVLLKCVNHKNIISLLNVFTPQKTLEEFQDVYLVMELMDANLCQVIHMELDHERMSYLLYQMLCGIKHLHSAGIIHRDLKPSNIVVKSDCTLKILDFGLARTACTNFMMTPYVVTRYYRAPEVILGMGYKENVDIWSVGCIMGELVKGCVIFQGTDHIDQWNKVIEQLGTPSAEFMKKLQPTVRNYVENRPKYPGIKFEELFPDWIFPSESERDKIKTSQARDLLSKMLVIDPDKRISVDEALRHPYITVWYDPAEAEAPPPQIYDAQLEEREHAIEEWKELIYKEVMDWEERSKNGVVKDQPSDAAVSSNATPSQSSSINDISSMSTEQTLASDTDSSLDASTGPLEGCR

JNK1 [4] = biological target: T1, JNK1; assay: DELFIA assay, displacement of biotinylated pepJIP1 from GST-JNK1; assay type: binding

T1 sequence (P45983 whole entry): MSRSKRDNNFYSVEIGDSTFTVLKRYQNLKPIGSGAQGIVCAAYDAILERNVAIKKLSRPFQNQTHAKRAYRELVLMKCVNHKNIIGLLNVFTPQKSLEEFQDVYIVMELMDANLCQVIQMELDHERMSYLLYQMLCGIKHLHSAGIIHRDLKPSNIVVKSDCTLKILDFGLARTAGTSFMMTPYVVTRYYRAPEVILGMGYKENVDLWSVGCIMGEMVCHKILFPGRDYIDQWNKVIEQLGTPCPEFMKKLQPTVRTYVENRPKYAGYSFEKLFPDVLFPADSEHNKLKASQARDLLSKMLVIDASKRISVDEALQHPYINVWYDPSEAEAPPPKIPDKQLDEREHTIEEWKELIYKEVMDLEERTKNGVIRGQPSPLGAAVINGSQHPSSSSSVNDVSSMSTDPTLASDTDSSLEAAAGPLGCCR

Compound | plasma stability (Plasma stability assay) | degraded [1] [%] | JNK1 inhibitory activity (in words) (JNK1 [2]) | also measured
NC(=O)c1ccsc1NC(=O)Cc1ccccc1Cl [Compound 26] | basically unaltered | 70 | – | –
NC(=O)c1ccc(NC(=O)Cc2cccc3ccccc23)s1 [Compound 5f] | – | – | completely inactive | –
COC(=O)c1ccsc1NC(=O)Cc1cccc2ccccc12 [Compound 5b] | – | – | significant loss of JNK1 inhibitory activity | –
NC(=O)c1ccsc1NC(=O)Cc1csc2ccccc12 [Compound 25] | basically unaltered | 85 | – | mode of inhibition versus ATP (Lineweaver-Burk) (JNK1 [2]; increasing ATP concentrations): ATP competitive inhibitor; mode of inhibition versus substrate ATF2 (Lineweaver-Burk) (JNK1 [2]; increasing substrate ATF2 concentrations): mixed substrate competitive inhibitor; Kd (JNK1 [3]; in presence of ATP (saturating non-hydrolizable ATP)): 1.1 µM; Kd (JNK1 [3]; in presence of pepJIP1 (saturating)): 3.1 µM
NC(=O)c1ccsc1NC(=O)Cc1cccc(Br)c1 [Compound 33] | basically unaltered | 74 | – | –
N#Cc1ccsc1NC(=O)Cc1cccc2ccccc12 [Compound 5c] | – | – | significant loss of JNK1 inhibitory activity | –
O=C(Cc1cccc2ccccc12)Nc1sccc1C(=O)O [Compound 5a] | – | – | significant loss of JNK1 inhibitory activity | –
Cc1sc(NC(=O)Cc2cccc3ccccc23)c(C(N)=O)c1C [Compound 1, 4,5-dimethyl-2-(2-(naphthalen-1-yl)acetamido)thiophene-3-carboxamide] | – | – | – | IC50 (JNK1 [4]): 15.8 µM
